Source: PubChem BioAssay AID1918993 (Molecular Pharmacology Branch, DTP, NCI, 2023)
Where “and” joins values, the source holds several entries; their conditions need not be identical. Equal entries are not always repeated.

System: 233499-124-R-J3-PDC complex spheroid growth
Experiment: Anticancer human tumor 233499-124-R-J3-PDC patient-derived colon adenocarcinoma cell line growth inhibition [AhR]
Conditions: for viability, T/C: stronger effect = lower value
Source text: Multicellular complex tumor spheroid response to aryl hydrocarbon receptor antagonists in combination with a variety of drugs and investigational agents in selected tumor cell lines
The current study was undertaken to assess response to aryl hydrocarbon receptor antagonists in combination with standard-of-care drugs and investigational agents in solid tumor complex spheroid models. Complex spheroids include a stromal component modeled by human endothelial cells (HUVEC) and fibroblasts modeled by human mesenchymal stem cells (MSCs). The concentration ranges selected for each drug and investigational agent were based upon clinically achievable concentrations if the clinical Cmax of the agent was known.
Compounds. The drugs and investigational agents: BAY 2416964 (NSC825713), GNF351 (NSC835774), CH-223191 (NSC835775), CPI-455 (NSC825282), aza-TdCyd (NSC777586), decitabine (NSC127716), belinostat (NSC758774), entinostat (NSC756642), pevonedistat (NSC761192), tazemetostat (NSC777109), talazoparib (NSC765396), olaparib (NSC753686), selinexor (NSC780203), nedisertib (M3814, NSC802822), bortezomib (NSC756655), venetoclax (NSC766270), doxorubicin (NSC123127), elimusertib (BAY189344, NSC800525), ceralasertib (AZD6738, NSC777638), TAK-243 (NSC785004), alisertib (NSC759677), etoposide (NSC141540), topotecan (NSC609699), eribulin (NSC707389), gemcitabine (NSC613327), carboplatin (NSC241240), cisplatin (NSC119875), and SN-38 (NSC673596) were obtained from the National Cancer Institute (NCI) Developmental Therapeutics Program Chemical Repository (32). The FDA-approved anticancer drug set is available from the Developmental Therapeutics Program at https://dtp.cancer.gov/organization/dscb/obtaining/available plates.htm. […] The stock solutions were prepared in dimethyl sulfoxide (DMSO, Sigma-Aldrich, St. Louis, MO, cat. D2650), except for the platinum compounds which were prepared in saline (Quality Biological, Gaithersburg, MD, cat. 114-055-101), at 800-fold the tested concentration and stored at -70 degrees C prior to their use. All drugs and investigational agents were tested over a range starting from a high concentration at or near the clinical Cmax and decreasing in half-log increments. If the clinical Cmax for an agent had not been determined, the highest concentration tested was 10 microM (Table 1).
Cell Culture. All cells were maintained in an incubator at 37 degrees C and 5% CO2 with 95% humidity. The PDC lines were cultured according to standard operating procedures established by the NCI PDMR (https://pdmr.cancer.gov). Briefly, all PDCs were thawed and cultured in Matrigel-coated flasks prepared with a working solution of 1X Ham's F-12 nutrient mix, without supplementation (Invitrogen, Waltham, MA, cat. 11765054), 100 U/mL penicillin-streptomycin (Invitrogen, cat. 15140122), and 2.5% Matrigel (Corning Inc., Corning, NY, cat. 354248) for the first three passages. All PDCs were cultured in complete DMEM/F-12 media containing advanced DMEM/F-12 (Invitrogen, cat. 12634028), 4.9% defined fetal bovine serum, heat inactivated (HyClone Laboratories Inc., Logan, UT, cat. SH30070.03HI), 389 ng/mL hydrocortisone (Sigma-Aldrich, cat. H4001), 9.7 ng/mL human EGF recombinant protein (Invitrogen, cat. PHG0313), 23.4 microg/mL adenine (Sigma-Aldrich, cat. A2786), 97.3 U/mL penicillin-streptomycin (Invitrogen, cat. 15140122), 1.9 mM L-glutamine (Invitrogen, cat. 25030081), and 9.7 microM Y-27632 dihydrochloride (Tocris Bioscience, Bristol, United Kingdom, cat. 1254). The PDCs were cultured in complete DMEM/F12 media without 10 microM Y-27632 dihydrochloride for at least two passages prior to the screen. The established cell lines NCI-H1341 and […] were cultured in DMEM/F-12, HEPES (Invitrogen, cat. 11330032), 5% defined fetal bovine serum (HyClone Laboratories Inc., cat. SH30070.03), ITS premix universal culture supplement [insulin (5 microg/mL), transferrin (5 microg/mL), and selenious acid (5 ng/mL)] […]

[1] = curve of first compound, second compound 0.1 µM
[2] = curve of first compound, second compound 0.316 µM
[3] = curve of first compound, second compound 1 µM
[4] = curve of first compound, second compound 3.16 µM
[5] = curve of first compound, second compound 10 µM
[6] = second compound 0.1 µM, first compound 0.0316 µM
[7] = second compound 0.1 µM, first compound 0.1 µM
[8] = second compound 0.1 µM, first compound 0.316 µM
[9] = second compound 0.1 µM, first compound 1 µM
[10] = second compound 0.1 µM, first compound 3.16 µM
[11] = second compound 0.1 µM, first compound 10 µM
[12] = second compound 0.316 µM, first compound 0.0316 µM
[13] = second compound 0.316 µM, first compound 0.1 µM
[14] = second compound 0.316 µM, first compound 0.316 µM
[15] = second compound 0.316 µM, first compound 1 µM
[16] = second compound 0.316 µM, first compound 3.16 µM
[17] = second compound 0.316 µM, first compound 10 µM
[18] = second compound 1 µM, first compound 0.0316 µM
[19] = second compound 1 µM, first compound 0.1 µM
[20] = second compound 1 µM, first compound 0.316 µM
[21] = second compound 1 µM, first compound 1 µM
[22] = second compound 1 µM, first compound 3.16 µM
[23] = second compound 1 µM, first compound 10 µM
[24] = second compound 3.16 µM, first compound 0.0316 µM
[25] = second compound 3.16 µM, first compound 0.1 µM
[26] = second compound 3.16 µM, first compound 0.316 µM
[27] = second compound 3.16 µM, first compound 1 µM
[28] = second compound 3.16 µM, first compound 3.16 µM
[29] = second compound 3.16 µM, first compound 10 µM
[30] = second compound 10 µM, first compound 0.0316 µM
[31] = second compound 10 µM, first compound 0.1 µM
[32] = second compound 10 µM, first compound 0.316 µM
[33] = second compound 10 µM, first compound 1 µM
[34] = second compound 10 µM, first compound 3.16 µM
[35] = second compound 10 µM, first compound 10 µM
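Further: spheroids exposed to agents for seven days before reading.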

SMILES	IC50 [1]	IC50 [2]	IC50 [3]	IC50 [4]	IC50 [5]	viability, T/C [6]	viability, T/C [7]	viability, T/C [8]	viability, T/C [9]	viability, T/C [10]	viability, T/C [11]	viability, T/C [12]	viability, T/C [13]	viability, T/C [14]	viability, T/C [15]	viability, T/C [16]	viability, T/C [17]	viability, T/C [18]	viability, T/C [19]	viability, T/C [20]	also measured
O=C(C=Cc1cccc(S(=O)(=O)Nc2ccccc2)c1)NO + Cc1ccccc1N=Nc1ccc(NC(=O)c2ccnn2C)c(C)c1	6.62 µM	5.96 µM	6.36 µM	5.56 µM	4.22 µM	98.3%	97.5%	110%	139%	127%	14%	95.2%	103%	127%	126%	104%	5.9%	110%	102%	116%	viability, T/C [21]: 126%; viability, T/C [22]: 111%; viability, T/C [23]: 10.7%; viability, T/C [24]: 102%; viability, T/C [25]: 102%; viability, T/C [26]: 105%; viability, T/C [27]: 129%; viability, T/C [28]: 89.6%; viability, T/C [29]: 9.1%; viability, T/C [30]: 94.4%; viability, T/C [31]: 101%; viability, T/C [32]: 98.5%; viability, T/C [33]: 94.1%; viability, T/C [34]: 65.4%; viability, T/C [35]: 3.82%
COc1cc(Nc2ncc3c(n2)-c2ccc(Cl)cc2C(c2c(F)cccc2OC)=NC3)ccc1C(=O)O + CC(CO)NC(=O)c1cc(-c2ccc(Cl)cc2)nn(-c2cnn(C)c2)c1=O	> 10 µM	> 10 µM	> 10 µM	> 10 µM	> 10 µM	75.4%	74.5%	81%	91.4%	84.6%	82.9%	75.6%	73.6%	86.3%	77.2%	62.8%	94%	78.7%	76.9%	96%	viability, T/C [21]: 72.5%; viability, T/C [22]: 87.7%; viability, T/C [23]: 74%; viability, T/C [24]: 57.9%; viability, T/C [25]: 67.4%; viability, T/C [26]: 86.3%; viability, T/C [27]: 89.1%; viability, T/C [28]: 84.7%; viability, T/C [29]: 84.9%; viability, T/C [30]: 58.8%; viability, T/C [31]: 62.8%; viability, T/C [32]: 73.8%; viability, T/C [33]: 65.4%; viability, T/C [34]: 57.9%; viability, T/C [35]: 59.2%
COc1ccc([C@@H](O)c2cc(-c3ncnc4cc(N5CCOCC5)ccc34)c(F)cc2Cl)nn1 + Cc1ccccc1N=Nc1ccc(NC(=O)c2ccnn2C)c(C)c1	> 10 µM	> 10 µM	> 10 µM	> 10 µM	> 10 µM	90.3%	98.9%	96.8%	104%	101%	89.2%	97.3%	101%	86.3%	102%	92%	63.6%	104%	98.4%	102%	viability, T/C [21]: 95.7%; viability, T/C [22]: 85.5%; viability, T/C [23]: 90.2%; viability, T/C [24]: 99.5%; viability, T/C [25]: 101%; viability, T/C [26]: 93.5%; viability, T/C [27]: 97.8%; viability, T/C [28]: 92.2%; viability, T/C [29]: 76.3%; viability, T/C [30]: 90.5%; viability, T/C [31]: 90.3%; viability, T/C [32]: 85.6%; viability, T/C [33]: 94.6%; viability, T/C [34]: 91.4%; viability, T/C [35]: 60.6%
COc1cc(Nc2ncc3c(n2)-c2ccc(Cl)cc2C(c2c(F)cccc2OC)=NC3)ccc1C(=O)O	–	–	–	–	–	–	–	–	–	–	–	–	–	–	–	–	–	–	–	–	viability, T/C (compound 0.0316 µM): 86.8% and 75.8% and 70.1%; viability, T/C (compound 0.1 µM): 82.6% and 65.5% and 75.6%; viability, T/C (compound 0.316 µM): 80.1% and 102% and 79.4%; viability, T/C (compound 1 µM): 84.1% and 87.8% and 83.3%; viability, T/C (compound 3.16 µM): 97.7% and 89.4% and 91.1%; viability, T/C (compound 10 µM): 82.9% and 90.2% and 86%; IC50 (curve of compound): > 10 µM
Cc1ccccc1N=Nc1ccc(NC(=O)c2ccnn2C)c(C)c1	–	–	–	–	–	–	–	–	–	–	–	–	–	–	–	–	–	–	–	–	viability, T/C (compound 0.1 µM): 102% [middle of 20 runs]; viability, T/C (compound 10 µM): 97.8% [middle of 20 runs]; IC50 (compound alone, run of 07/26/2022): > 10 µM
CC[C@@]1(O)C(=O)OCc2c1cc1n(c2=O)Cc2cc3c(CN(C)C)c(O)ccc3nc2-1	–	–	–	–	–	–	–	–	–	–	–	–	–	–	–	–	–	–	–	–	viability, T/C (compound 0.000316 µM): 104% (2×) and 97.5%; viability, T/C (compound 0.001 µM): 107% and 86.7% and 95.5%; viability, T/C (compound 0.00316 µM): 94.7% and 92% and 87.1%; viability, T/C (compound 0.01 µM): 95% and 99.2% and 93.8%; viability, T/C (compound 0.0316 µM): 86.8% and 86.6% and 108%; viability, T/C (compound 0.1 µM): 92.3% and 83.2% and 89.9%; IC50 (curve of compound): > 0.1 µM
Nc1ccccc1NC(=O)c1ccc(CNC(=O)OCc2cccnc2)cc1 + CC(CO)NC(=O)c1cc(-c2ccc(Cl)cc2)nn(-c2cnn(C)c2)c1=O	2.28 µM	2.24 µM	3.93 µM	1.94 µM	1.32 µM	97.6%	92.2%	87.1%	91%	33.8%	3.08%	102%	91.4%	99%	78.2%	37.9%	5%	88.8%	96.7%	105%	viability, T/C [21]: 96%; viability, T/C [22]: 60.7%; viability, T/C [23]: 3.71%; viability, T/C [24]: 91.9%; viability, T/C [25]: 105%; viability, T/C [26]: 101%; viability, T/C [27]: 90.8%; viability, T/C [28]: 19.7%; viability, T/C [29]: 1.49%; viability, T/C [30]: 97.1%; viability, T/C [31]: 82.9%; viability, T/C [32]: 87.9%; viability, T/C [33]: 62%; viability, T/C [34]: 11.8%; viability, T/C [35]: 0.6%
